Measured values reported in patent US20250243171A1, “QUINAZOLINE COMPOUNDS FOR TREATMENT OF DISEASE” (Arthrosi Therapeutics, Inc., priority 2021, published 2025).

How the values were obtained:
Experiment in all cases: EC50 assay: Ba/F3 stable cell proliferation (CCK-8, 72 h)
Format in all cases: cell-based
[1] = molecular target: T1, Ba/F3 stable cells (Homo sapiens, UniProt P00533, INS763FQEA, cells depend on it); settings: Ba/F3-EGFR A763-Y764insFQEA cells
T1 construct: EC50 Ba/F3-EGFR A763-Y764insFQEA; other: Ba/F3-EGFR A763-Y764insFQEA cells, 72 h, CCK-8
T1 sequence (P00533 with tags, fused parts or gaps INS763FQEA): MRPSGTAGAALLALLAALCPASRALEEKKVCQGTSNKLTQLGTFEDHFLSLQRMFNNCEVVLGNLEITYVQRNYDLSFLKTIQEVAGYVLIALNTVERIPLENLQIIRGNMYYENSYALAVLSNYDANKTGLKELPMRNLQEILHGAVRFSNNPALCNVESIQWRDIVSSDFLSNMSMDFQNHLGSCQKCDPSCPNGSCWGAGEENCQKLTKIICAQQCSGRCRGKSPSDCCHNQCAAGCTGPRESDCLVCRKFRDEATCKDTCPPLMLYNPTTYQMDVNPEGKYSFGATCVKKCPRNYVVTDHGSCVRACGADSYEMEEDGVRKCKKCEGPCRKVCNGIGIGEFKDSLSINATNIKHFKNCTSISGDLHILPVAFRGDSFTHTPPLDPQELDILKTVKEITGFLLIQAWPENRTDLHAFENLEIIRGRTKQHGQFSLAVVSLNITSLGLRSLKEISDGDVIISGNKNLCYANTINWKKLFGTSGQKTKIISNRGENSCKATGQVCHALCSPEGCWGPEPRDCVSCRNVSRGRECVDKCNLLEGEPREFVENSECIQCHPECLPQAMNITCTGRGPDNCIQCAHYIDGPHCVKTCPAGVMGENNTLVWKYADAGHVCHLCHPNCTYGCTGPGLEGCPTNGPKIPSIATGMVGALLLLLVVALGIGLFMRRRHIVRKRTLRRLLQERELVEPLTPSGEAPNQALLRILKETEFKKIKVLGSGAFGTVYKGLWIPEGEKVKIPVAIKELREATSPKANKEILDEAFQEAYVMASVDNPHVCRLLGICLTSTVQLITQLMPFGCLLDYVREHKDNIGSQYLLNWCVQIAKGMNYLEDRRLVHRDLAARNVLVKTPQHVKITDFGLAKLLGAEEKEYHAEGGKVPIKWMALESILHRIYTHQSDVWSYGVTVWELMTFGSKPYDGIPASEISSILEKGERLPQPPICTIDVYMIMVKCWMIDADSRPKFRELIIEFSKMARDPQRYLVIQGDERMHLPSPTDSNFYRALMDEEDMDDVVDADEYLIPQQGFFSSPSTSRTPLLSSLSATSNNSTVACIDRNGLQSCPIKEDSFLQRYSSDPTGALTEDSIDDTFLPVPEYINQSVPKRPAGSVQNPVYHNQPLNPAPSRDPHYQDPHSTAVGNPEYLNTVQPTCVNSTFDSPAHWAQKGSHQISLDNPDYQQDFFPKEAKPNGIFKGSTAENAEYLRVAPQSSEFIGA
Outline: (§1)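 Ba/F3 stable cells were seeded at 4,000 cells/90 μL/well in 96-well plates and held 2 h at 37° C. in 5% CO2, then given 10 μL of serially titrated compound (0.1% DMSO final). After 72 h at 37° C., CCK-8 reagent was added for 4 hours and absorbance read at 450 nm to derive EC50.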

[2] = molecular target: T2, Ba/F3 stable cells (Homo sapiens, UniProt P00533, T790M/L858R, cells depend on it); settings: Ba/F3-EGFR L858R-T790M cells
T2 construct: EC50 Ba/F3-EGFR L858R-T790M; other: Ba/F3-EGFR L858R-T790M cells, 72 h, CCK-8
Outline: as §1

[3] = molecular target: T3, Ba/F3 stable cells (Homo sapiens, UniProt P04626, DUP772-775, cells depend on it); settings: Ba/F3-HER2 A775-G776insYVMA cells
T3 construct: EC50 Ba/F3-HER2 A775-G776insYVMA; other: Ba/F3-HER2 A775-G776insYVMA cells, 72 h, CCK-8
T3 sequence (P04626 with tags, fused parts or gaps DUP772-775): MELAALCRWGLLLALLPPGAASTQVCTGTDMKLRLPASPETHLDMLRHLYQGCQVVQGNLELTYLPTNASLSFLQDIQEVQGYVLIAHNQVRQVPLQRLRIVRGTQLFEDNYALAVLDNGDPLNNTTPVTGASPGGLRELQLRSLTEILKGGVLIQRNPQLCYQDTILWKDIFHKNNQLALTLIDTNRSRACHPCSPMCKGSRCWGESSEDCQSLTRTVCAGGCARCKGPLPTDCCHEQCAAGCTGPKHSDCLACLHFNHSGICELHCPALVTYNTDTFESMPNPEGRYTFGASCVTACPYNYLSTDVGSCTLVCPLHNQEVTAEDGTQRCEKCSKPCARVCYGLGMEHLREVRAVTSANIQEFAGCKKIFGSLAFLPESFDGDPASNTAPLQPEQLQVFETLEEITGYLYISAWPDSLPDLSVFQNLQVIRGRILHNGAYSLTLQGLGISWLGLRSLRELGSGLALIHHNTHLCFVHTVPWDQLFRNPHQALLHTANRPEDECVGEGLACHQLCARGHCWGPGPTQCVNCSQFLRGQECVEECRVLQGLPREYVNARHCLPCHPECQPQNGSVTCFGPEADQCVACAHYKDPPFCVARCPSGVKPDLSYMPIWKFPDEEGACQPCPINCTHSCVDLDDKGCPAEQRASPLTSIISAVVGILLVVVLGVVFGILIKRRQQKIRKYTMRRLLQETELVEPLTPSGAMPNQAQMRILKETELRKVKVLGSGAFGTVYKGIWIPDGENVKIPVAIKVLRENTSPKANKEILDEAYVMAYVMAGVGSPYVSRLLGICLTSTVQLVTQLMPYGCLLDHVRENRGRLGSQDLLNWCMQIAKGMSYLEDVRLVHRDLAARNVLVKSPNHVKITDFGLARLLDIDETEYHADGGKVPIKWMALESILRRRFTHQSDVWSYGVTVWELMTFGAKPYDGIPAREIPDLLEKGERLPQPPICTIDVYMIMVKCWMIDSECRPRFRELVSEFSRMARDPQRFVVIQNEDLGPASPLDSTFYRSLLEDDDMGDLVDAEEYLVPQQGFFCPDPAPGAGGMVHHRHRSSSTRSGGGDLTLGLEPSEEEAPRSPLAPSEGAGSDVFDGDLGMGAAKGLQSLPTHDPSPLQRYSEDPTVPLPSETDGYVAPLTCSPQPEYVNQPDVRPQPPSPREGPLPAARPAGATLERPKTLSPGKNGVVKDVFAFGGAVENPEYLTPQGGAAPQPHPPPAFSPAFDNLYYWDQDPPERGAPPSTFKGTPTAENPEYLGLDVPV
Outline: as §1

[4] = molecular target: T4, Ba/F3 stable cells (Homo sapiens, UniProt P00533, DUP767-769, cells depend on it); settings: Ba/F3-EGFR V769-D770insASV cells
T4 construct: EC50 Ba/F3-EGFR V769-D770insASV; other: Ba/F3-EGFR V769-D770insASV cells, 72 h, CCK-8
T4 sequence (P00533 with tags, fused parts or gaps DUP767-769): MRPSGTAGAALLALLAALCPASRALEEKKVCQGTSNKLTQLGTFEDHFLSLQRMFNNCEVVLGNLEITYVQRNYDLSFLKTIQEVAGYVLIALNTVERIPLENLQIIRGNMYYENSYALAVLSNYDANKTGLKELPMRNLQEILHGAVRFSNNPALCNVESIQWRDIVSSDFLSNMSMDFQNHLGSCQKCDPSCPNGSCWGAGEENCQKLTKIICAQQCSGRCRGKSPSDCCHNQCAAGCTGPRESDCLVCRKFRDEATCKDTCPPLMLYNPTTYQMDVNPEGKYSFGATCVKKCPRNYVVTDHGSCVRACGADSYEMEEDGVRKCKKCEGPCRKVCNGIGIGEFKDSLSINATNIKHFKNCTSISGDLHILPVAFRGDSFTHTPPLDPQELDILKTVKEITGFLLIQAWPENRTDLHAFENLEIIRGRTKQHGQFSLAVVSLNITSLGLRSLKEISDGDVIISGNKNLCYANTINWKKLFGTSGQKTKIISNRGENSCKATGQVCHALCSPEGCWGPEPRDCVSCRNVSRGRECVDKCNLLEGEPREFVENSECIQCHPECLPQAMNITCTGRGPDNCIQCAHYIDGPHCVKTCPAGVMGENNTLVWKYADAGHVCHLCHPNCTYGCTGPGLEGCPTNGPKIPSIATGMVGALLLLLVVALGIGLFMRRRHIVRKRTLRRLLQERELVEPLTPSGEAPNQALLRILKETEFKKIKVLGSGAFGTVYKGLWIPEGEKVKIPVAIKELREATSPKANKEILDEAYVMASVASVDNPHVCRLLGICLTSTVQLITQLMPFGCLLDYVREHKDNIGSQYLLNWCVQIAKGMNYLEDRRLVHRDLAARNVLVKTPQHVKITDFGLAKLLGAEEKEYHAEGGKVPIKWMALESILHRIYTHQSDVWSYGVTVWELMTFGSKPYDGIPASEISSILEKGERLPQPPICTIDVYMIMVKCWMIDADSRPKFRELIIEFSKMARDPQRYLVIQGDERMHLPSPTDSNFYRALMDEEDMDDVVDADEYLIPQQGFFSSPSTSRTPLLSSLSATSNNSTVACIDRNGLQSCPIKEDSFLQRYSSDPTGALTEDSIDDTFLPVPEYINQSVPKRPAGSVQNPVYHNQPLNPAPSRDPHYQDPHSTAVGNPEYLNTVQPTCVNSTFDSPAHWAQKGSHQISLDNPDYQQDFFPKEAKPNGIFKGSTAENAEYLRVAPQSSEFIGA
Outline: as §1

[5] = molecular target: T5, Ba/F3 stable cells (Homo sapiens, UniProt P00533, DUP771-773, cells depend on it); settings: Ba/F3-EGFR H773-V774insNPH cells
T5 construct: EC50 Ba/F3-EGFR H773-V774insNPH; other: Ba/F3-EGFR H773-V774insNPH cells, 72 h, CCK-8
Outline: as §1

[6] = molecular target: T6, Ba/F3 stable cells (Homo sapiens, UniProt P00533, DUP768-770, cells depend on it); settings: Ba/F3-EGFR D770-N771insSVD cells
T6 construct: EC50 Ba/F3-EGFR D770-N771insSVD; other: Ba/F3-EGFR D770-N771insSVD cells, 72 h, CCK-8
T6 sequence (P00533 with tags, fused parts or gaps DUP768-770): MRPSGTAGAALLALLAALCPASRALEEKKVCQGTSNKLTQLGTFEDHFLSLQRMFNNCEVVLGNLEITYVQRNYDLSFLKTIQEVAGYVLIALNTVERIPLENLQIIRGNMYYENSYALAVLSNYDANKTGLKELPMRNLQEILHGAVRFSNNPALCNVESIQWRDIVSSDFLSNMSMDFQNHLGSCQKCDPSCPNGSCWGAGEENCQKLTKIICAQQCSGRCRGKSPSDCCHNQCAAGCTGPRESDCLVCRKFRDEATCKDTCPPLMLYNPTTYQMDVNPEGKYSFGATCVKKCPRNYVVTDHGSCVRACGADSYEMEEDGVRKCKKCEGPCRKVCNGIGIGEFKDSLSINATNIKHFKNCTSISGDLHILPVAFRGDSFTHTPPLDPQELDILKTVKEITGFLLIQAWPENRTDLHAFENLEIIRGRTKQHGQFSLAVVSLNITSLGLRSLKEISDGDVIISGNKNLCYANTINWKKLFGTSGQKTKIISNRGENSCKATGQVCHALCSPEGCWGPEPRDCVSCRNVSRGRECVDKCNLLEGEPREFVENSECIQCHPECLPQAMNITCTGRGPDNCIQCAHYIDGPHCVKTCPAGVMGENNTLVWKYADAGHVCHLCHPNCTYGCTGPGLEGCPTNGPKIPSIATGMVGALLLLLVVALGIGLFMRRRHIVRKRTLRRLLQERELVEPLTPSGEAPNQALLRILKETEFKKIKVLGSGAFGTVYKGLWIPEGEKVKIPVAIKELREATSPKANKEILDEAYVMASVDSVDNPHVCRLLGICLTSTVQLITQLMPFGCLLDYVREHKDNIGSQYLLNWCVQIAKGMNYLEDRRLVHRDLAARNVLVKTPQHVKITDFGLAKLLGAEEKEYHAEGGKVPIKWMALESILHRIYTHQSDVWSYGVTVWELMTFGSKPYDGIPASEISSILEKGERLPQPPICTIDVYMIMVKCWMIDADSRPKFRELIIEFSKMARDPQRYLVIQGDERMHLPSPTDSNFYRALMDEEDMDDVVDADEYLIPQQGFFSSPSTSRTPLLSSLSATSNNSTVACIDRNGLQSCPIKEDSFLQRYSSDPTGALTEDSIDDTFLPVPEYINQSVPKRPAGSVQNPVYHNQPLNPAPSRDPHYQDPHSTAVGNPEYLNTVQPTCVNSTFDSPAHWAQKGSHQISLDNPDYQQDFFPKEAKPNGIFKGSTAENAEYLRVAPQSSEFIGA
Outline: as §1

SMILES | EC50 [1] | EC50 [2] | EC50 [3] | EC50 [4] | EC50 [5] | EC50 [6]
C=CC(=O)N1CCC(Oc2cc3c(NC(C(=O)O)c4cccc(Cl)c4)ncnc3cc2OC)CC1 (stereo not drawn) [Compound 126, 2-((6-((1-acryloylpiperidin-4-yl)oxy)-7-methoxyquinazolin-4-yl)amino)-2-(3-chlorophenyl)acetic acid] | > 1000 nM | > 1000 nM | > 1000 nM | > 1000 nM | > 1000 nM | > 1000 nM
C=CC(=O)N1CCC(Oc2cc3c(NC(CC(=O)O)c4cccc(Cl)c4)ncnc3cc2OC)CC1 (stereo not drawn) [Compound 129, 3-((6-((1-acryloylpiperidin-4-yl)oxy)-7-methoxyquinazolin-4-yl)amino)-3-(3-chlorophenyl)propanoic acid] | > 1000 nM | > 1000 nM | > 1000 nM | > 1000 nM | > 1000 nM | > 1000 nM
C=CC(=O)N1CCC(Oc2cc3c(Nc4ccc5c(c4)CCN5S(C)(=O)=O)ncnc3cc2OC)CC1 [Compound 134, 1-(4-((7-methoxy-4-((1-(methylsulfonyl)indolin-5-yl)amino)quinazolin-6-yl)oxy)piperidin-1-yl)prop-2-en-1-one] | 200 to 1000 nM | > 1000 nM | ≤ 200 nM | > 1000 nM | > 1000 nM | > 1000 nM
C=CC(=O)N1CCC(Oc2cc3c(Nc4nc5cc(Cl)ccc5o4)ncnc3cc2OC)CC1 [Compound 136, 1-(4-((4-((5-chlorobenzo[d]oxazol-2-yl)amino)-7-methoxyquinazolin-6-yl)oxy)piperidin-1-yl)prop-2-en-1-one] | 200 to 1000 nM | > 1000 nM | > 1000 nM | > 1000 nM | > 1000 nM | > 1000 nM
C=CC(=O)N1CCC(Oc2cc3c(Nc4ccc5cnccc5c4)ncnc3cc2OC)CC1 [Compound 140, 1-(4-((4-(isoquinolin-6-ylamino)-7-methoxyquinazolin-6-yl)oxy)piperidin-1-yl)prop-2-en-1-one] | > 1000 nM | > 1000 nM | > 1000 nM | > 1000 nM | > 1000 nM | > 1000 nM
C=CC(=O)N1CCC(Oc2cc3c(Nc4ccc5cccnc5c4)ncnc3cc2OC)CC1 [Compound 141, 1-(4-((7-methoxy-4-(quinolin-7-ylamino)quinazolin-6-yl)oxy)piperidin-1-yl)prop-2-en-1-one] | ≤ 200 nM | 200 to 1000 nM | 200 to 1000 nM | 200 to 1000 nM | 200 to 1000 nM | > 1000 nM
C=CC(=O)N1CCC(Oc2cc3c(Nc4ccc5scnc5c4)ncnc3cc2OC)CC1 [Compound 142, 1-(4-((4-(benzo[d]thiazol-5-ylamino)-7-methoxyquinazolin-6-yl)oxy)piperidin-1-yl)prop-2-en-1-one] | ≤ 200 nM | 200 to 1000 nM | ≤ 200 nM | ≤ 200 nM | 200 to 1000 nM | > 1000 nM
C=CC(=O)N1CCC(Oc2cc3c(Nc4ccc5ncccc5c4)ncnc3cc2OC)CC1 [Compound 143, 1-(4-((7-methoxy-4-(quinolin-6-ylamino)quinazolin-6-yl)oxy)piperidin-1-yl)prop-2-en-1-one] | ≤ 200 nM | 200 to 1000 nM | 200 to 1000 nM | ≤ 200 nM | 200 to 1000 nM | > 1000 nM
C=CC(=O)N1CCC(Oc2cc3c(Nc4ccc5nccnc5c4)ncnc3cc2OC)CC1 [Compound 144, 1-(4-((7-methoxy-4-(quinoxalin-6-ylamino)quinazolin-6-yl)oxy)piperidin-1-yl)prop-2-en-1-one] | 200 to 1000 nM | > 1000 nM | > 1000 nM | > 1000 nM | > 1000 nM | > 1000 nM
C=CC(=O)N1CCC(Oc2cc3c(Nc4ccc5ncsc5c4)ncnc3cc2OC)CC1 [Compound 145, 1-(4-((4-(benzo[d]thiazol-6-ylamino)-7-methoxyquinazolin-6-yl)oxy)piperidin-1-yl)prop-2-en-1-one] | ≤ 200 nM | 200 to 1000 nM | > 1000 nM | 200 to 1000 nM | 200 to 1000 nM | > 1000 nM
C=CC(=O)N1CCC(Oc2cc3c(Nc4cccc5cccnc45)ncnc3cc2OC)CC1 [Compound 146, 1-(4-((7-methoxy-4-(quinolin-8-ylamino)quinazolin-6-yl)oxy)piperidin-1-yl)prop-2-en-1-one] | ≤ 200 nM | 200 to 1000 nM | 200 to 1000 nM | ≤ 200 nM | 200 to 1000 nM | 200 to 1000 nM
C=CC(=O)N1CCC(Oc2cc3c(N4CCN(c5cccc(Cl)c5)CC4)ncnc3cc2OC)CC1 [Compound 147, 1-(4-((4-(4-(3-chlorophenyl)piperazin-1-yl)-7-methoxyquinazolin-6-yl)oxy)piperidin-1-yl)prop-2-en-1-one] | > 1000 nM | > 1000 nM | > 1000 nM | > 1000 nM | > 1000 nM | > 1000 nM

Second part, the compound after the results:

EC50 [1] | EC50 [2] | EC50 [3] | EC50 [4] | EC50 [5] | EC50 [6] | SMILES
≤ 200 nM | 200 to 1000 nM | 200 to 1000 nM | 200 to 1000 nM | 200 to 1000 nM | 200 to 1000 nM | C=CC(=O)N1CCC(Oc2cc3c(NCc4cccc(I)c4)ncnc3cc2OC)CC1 [Compound 125, 1-(4-((4-((3-iodobenzyl)amino)-7-methoxyquinazolin-6-yl)oxy)piperidin-1-yl)prop-2-en-1-one]
≤ 200 nM | > 1000 nM | > 1000 nM | 200 to 1000 nM | > 1000 nM | > 1000 nM | C=CC(=O)N1CCC(Oc2cc3c(NC(C(N)=O)c4cccc(Cl)c4)ncnc3cc2OC)CC1 (stereo not drawn) [Compound 127, 2-((6-((1-acryloylpiperidin-4-yl)oxy)-7-methoxyquinazolin-4-yl)amino)-2-(3-chlorophenyl)acetamide]
≤ 200 nM | > 1000 nM | 200 to 1000 nM | ≤ 200 nM | 200 to 1000 nM | > 1000 nM | C=CC(=O)N1CCC(Oc2cc3c(NC(CC(N)=O)c4cccc(Cl)c4)ncnc3cc2OC)CC1 (stereo not drawn) [Compound 130, 3-((6-((1-acryloylpiperidin-4-yl)oxy)-7-methoxyquinazolin-4-yl)amino)-3-(3-chlorophenyl)propanamide]
≤ 200 nM | > 1000 nM | ≤ 200 nM | ≤ 200 nM | ≤ 200 nM | ≤ 200 nM | C=CC(=O)N1CCC(Oc2cc3c(NC(CCO)c4cccc(Cl)c4)ncnc3cc2OC)CC1 (stereo not drawn) [Compound 131, 1-(4-((4-((1-(3-chlorophenyl)-3-hydroxypropyl)amino)-7-methoxyquinazolin-6-yl)oxy)piperidin-1-yl)prop-2-en-1-one]
≤ 200 nM | > 1000 nM | 200 to 1000 nM | 200 to 1000 nM | 200 to 1000 nM | 200 to 1000 nM | C=CC(=O)N1CCCC(Oc2cc3c(Nc4ccc(Cl)c(Cl)c4F)ncnc3cc2OC)C1 (stereo not drawn) [Compound 132, 1-(3-((4-((3,4-dichloro-2-fluorophenyl)amino)-7-methoxyquinazolin-6-yl)oxy)piperidin-1-yl)prop-2-en-1-one]
≤ 200 nM | 200 to 1000 nM | 200 to 1000 nM | ≤ 200 nM | 200 to 1000 nM | 200 to 1000 nM | C=CC(=O)N1CCC(Oc2cc3c(Nc4cnc5ccccc5c4)ncnc3cc2OC)CC1 [Compound 135, 1-(4-((7-methoxy-4-(quinolin-3-ylamino)quinazolin-6-yl)oxy)piperidin-1-yl)prop-2-en-1-one]
≤ 200 nM | > 1000 nM | 200 to 1000 nM | 200 to 1000 nM | > 1000 nM | > 1000 nM | C=CC(=O)N1CCC(Oc2cc3c(Nc4ccc5cn[nH]c5c4)ncnc3cc2OC)CC1 [Compound 137, 1-(4-((4-((1H-indazol-6-yl)amino)-7-methoxyquinazolin-6-yl)oxy)piperidin-1-yl)prop-2-en-1-one]
≤ 200 nM | 200 to 1000 nM | ≤ 200 nM | ≤ 200 nM | 200 to 1000 nM | 200 to 1000 nM | C=CC(=O)N1CCC(Oc2cc3c(Nc4ccc5cnn(C)c5c4)ncnc3cc2OC)CC1 [Compound 138, 1-(4-((7-methoxy-4-((1-methyl-1H-indazol-6-yl)amino)quinazolin-6-yl)oxy)piperidin-1-yl)prop-2-en-1-one]
≤ 200 nM | > 1000 nM | > 1000 nM | > 1000 nM | > 1000 nM | > 1000 nM | C=CC(=O)N1CCC(Oc2cc3c(Nc4cccc5cn[nH]c45)ncnc3cc2OC)CC1 [Compound 139, 1-(4-((4-((1H-indazol-7-yl)amino)-7-methoxyquinazolin-6-yl)oxy)piperidin-1-yl)prop-2-en-1-one]
